# Assay results from patent US20060134056A1, “Use of alkylguanidines as cationic emulsifiers” (G[…], priority 2004, published 2006).
# Assay: storage stability of O/W emulsions
# Assay type: physicochemical
# Conditions: O/W emulsion with 0.5% emulsifier; room temperature, 45° C. and freeze-thaw cycles (3×−15° C.)
# Procedure: Here, it was paaticulaily surprising that stable emulsions were obtainale even at emulsifier concentrations of 0.5% stearylguanidinium acetate (6 months stability at room temperature, 45° C. and freeze-thaw cycles (3×−15° C.)).
# In addition, emulsions 7 to 8 also illustrate the excellent emulsifying properties of other alkylguanidinium salts.
smiles,measurement,value
CC(=O)O.CCCCCCCCCCCCCCCCCCNC(=N)N [stearylguanidinium acetate],stability of emulsion,6 months
